The record followed here is patent publication US11254657B2, “Plinabulin compositions” (priority 2015, dated 2022).

What all share (type): physicochemical
A short description of data set [1]: Gravimetric solubility measurement in solvents. The following applies: for solubility at 3 days: thermodynamic from solid, slurried 3 days. How it is done:
A plinabulin compound was slurried in 15 different solvents/solvent mixtures as shown in Table 9 at 15° C. and 45° C. for 3 days for gravimetric solubility measurement. About 70 mg of solid was added to a vial for each experiment followed by addition of 0.7 mL of the respective solvents. Next, the slurry was centrifuged and the supernatant was added to pre-weighed vials and evaporated to dryness under vacuum. The vials with remaining solids were weighed again to calculate the solubility. […]

Data set [2] in a line: Dissolution in kolliphor (40% wt) and propylene glycol (60% wt). To be noted: mixture of kolliphor (40% wt) and propylene glycol (60% wt). How it is done:
A batch of plinabulin having a KF analysis of about 3.1% for water content was added to a mixture of kolliphor (40% wt) and propylene glycol (60% wt). […] The batch was reprocessed according to the steps described in FIG. 29 to form the plinabulin monohydrate (Form 1).

A short description of data set [3]: Dynamic Vapor Sorption (DVS) test. The protocol:
The DSC data were collected using a TA Instruments Q10 DSC. Typically, samples (˜2 mg) were placed in hermetic alodined aluminum sample pans and scanned from 30 to 300° C. at a rate of 10° C./min under a nitrogen purge of 50 mL/min. The TGA data were collected using a TA Instruments TGA Q500. Typically, samples (˜10 mg) were placed in an open, pre-tared aluminum sample pan and scanned from 30 to 300° C. at a rate of 10° C./min using a nitrogen purge at 60 mL/min. The X-ray powder diffraction patterns were obtained using a Bruker D8 Advance equipped with a Cu Ku radiation source ([…]), a 9-position sample holder and a LYNXEYE Super Speed Detector. Typically, the duration of each scan was 180 seconds and the 2θ range was 4 to 40°. Samples were placed on zero-background, silicon plate holders. Samples were analyzed using an Aquadyne DVS-2 gravimetric water sorption analyzer. The relative humidity was adjusted between 2-95% and the weight of sample was continuously monitored and recorded.
A DVS experiment was run on the plinabulin monohydrate (Form 1). The sample gained ˜0.1% mass at 95% RH which was lost on drying to 0% RH without hysteresis. […] The XRPD pattern of the pre-DVS sample (Form 1 plinabulin monohydrate) overlays with the XRPD patterns of the post-DVS sample (Form 1 plinabulin monohydrate).

The nature of data set [4]: Drying study in vacuum oven at 50° C. To be noted: overnight and over the weekend. The protocol: A sample of plinabulin monohydrate (Form 1) was placed in a vacuum oven at 50° C. overnight and over the weekend.
Data set [5] is described as follows: High humidity exposure stability. The following applies: >95% RH for 13 days. From the text:
Form 1 was also stable under various humidity conditions. On the other hand, the crystalline forms converted to Form I monohydrate when exposed to moisture.

The nature of data set [6]: Karl Fischer moisture level on extended drying and humid exposure. The protocol:
Analysis by KF after drying at 45° C. under vacuum for an additional 70 hours indicated the moisture level had decreased to 4.1%. […] This sample was placed in a glove bag in an open container with an open container of water and the moisture level monitored. After 4 hours the moisture level was measured as 5.0%. After 18.5 hours the moisture level was measured as 4.8% and after 51 hours the KF result was 4.9%.
A sample of plinabulin compound (4.92 g) was stirred in ethanol (147.6 g) and heated to reflux (fully soluble at 75° C.). The solution was then allowed to cool and monitored for precipitation. A precipitate was observed when the solution was at 48° C. The mixture was re-heated to reflux providing a clear yellow solution. To the hot solution was added 295 g of water (approximately twice the mass of ethanol) allowing the mixture to cool during the addition. A precipitate was observed after charging approximately 150 mL of water with the temperature at 48° C. This solution was allowed to cool to room temperature. The solids were filtered and washed three times with 20 g of water. The solid was dried at 40-45° C. for 2.5 days to give 4.82 g, 98.0% recovery. […] Analysis by KF after drying at 45° C. under vacuum for an additional 70 hours indicated the moisture level had decreased to 4.4%. The XRPD of this sample indicates it was essentially unchanged, a mixture of Forms 1 and 3 with additional peaks (at around 12.26°, 15.19° and 28.79° 2θ degrees). This sample was placed in a glove bag in an open container with an open container of water and the moisture level monitored. After 4 hours the moisture level was measured as 5.0%. After 18.5 hours the moisture level was measured as 4.9% and after 51 hours the KF result was 5.1%.

[7] abbreviates: listed as plinabulin monohydrate (Form 1).

Molecules are shown by their SMILES. Entries after “also recorded” stand apart in the source; their conditions may differ. Like-named read-outs stand apart in the source and are kept apart here.

`CC(C)(C)c1[nH]cnc1/C=c1\[nH]c(=O)/c(=C/c2ccccc2)[nH]c1=O` [plinabulin monohydrate, (3Z,6Z)-3-Benzylidene-6-{[5-(2-methyl-2-propanyl)-1H-imidazol-4-yl]methylene}-2,5-piperazinedione]: the solubility at 3 days in data set [1] (organic solvent or mixture, ACN, 15° C., read-out: Solubility at 15° C.) was found to be 3 mg/mL; in data set [1] (organic solvent or mixture, ACN, 45° C., read-out: Solubility at 45° C.) it was 7 mg/mL; in data set [1] (organic solvent or mixture, Acetone:water (95:5), 15° C., read-out: Solubility at 15° C.) it was 6 mg/mL; in data set [1] (organic solvent or mixture, Acetone:water (95:5), 45° C., read-out: Solubility at 45° C.), 16 mg/mL; in data set [1] (organic solvent or mixture, Acetone, 15° C., read-out: Solubility at 15° C.), 11 mg/mL; in data set [1] (organic solvent or mixture, Acetone, 45° C., read-out: Solubility at 45° C.) it was 20 mg/mL. Further, the solubility at 3 days is 2 mg/mL in data set [1] (organic solvent or mixture, DCM, 15° C., read-out: Solubility at 15° C.); 3 mg/mL in data set [1] (organic solvent or mixture, EtOAc, 15° C., read-out: Solubility at 15° C.); 8 mg/mL in data set [1] (organic solvent or mixture, EtOAc, 45° C., read-out: Solubility at 45° C.); 4 mg/mL in data set [1] (organic solvent or mixture, EtOH:water (95:5), 15° C., read-out: Solubility at 15° C.); 13 mg/mL in data set [1] (organic solvent or mixture, EtOH:water (95:5), 45° C., read-out: Solubility at 45° C.); 5 mg/mL in data set [1] (organic solvent or mixture, EtOH, 15° C., read-out: Solubility at 15° C.). The solubility at 3 days in data set [1] (organic solvent or mixture, EtOH, 45° C., read-out: Solubility at 45° C.) is 13 mg/mL; in data set [1] (organic solvent or mixture, Heptane, 15° C., read-out: Solubility at 15° C.) it was less than 1 mg/mL; in data set [1] (organic solvent or mixture, Heptane, 45° C., read-out: Solubility at 45° C.) it was 3 mg/mL; in data set [1] (organic solvent or mixture, IPA, 15° C., read-out: Solubility at 15° C.), 1 mg/mL; in data set [1] (organic solvent or mixture, IPA, 45° C., read-out: Solubility at 45° C.), 7 mg/mL; in data set [1] (organic solvent or mixture, MEK, 15° C., read-out: Solubility at 15° C.), 11 mg/mL. The solubility at 3 days in data set [1] (organic solvent or mixture, MEK, 45° C., read-out: Solubility at 45° C.) was 23 mg/mL; in data set [1] (organic solvent or mixture, MTBE, 15° C., read-out: Solubility at 15° C.), less than 1 mg/mL; in data set [1] (organic solvent or mixture, MTBE, 45° C., read-out: Solubility at 45° C.) it was 5 mg/mL; in data set [1] (organic solvent or mixture, MeOH, 15° C., read-out: Solubility at 15° C.), 5 mg/mL; in data set [1] (organic solvent or mixture, MeOH, 45° C., read-out: Solubility at 45° C.), 13 mg/mL; in data set [1] (organic solvent or mixture, THF, 15° C., read-out: Solubility at 15° C.), 40 mg/mL. The solubility at 3 days was 96 mg/mL in data set [1] (organic solvent or mixture, THF, 45° C., read-out: Solubility at 45° C.); 1 mg/mL in data set [1] (organic solvent or mixture, Toluene, 15° C., read-out: Solubility at 15° C.); 7 mg/mL in data set [1] (organic solvent or mixture, Toluene, 45° C., read-out: Solubility at 45° C.); less than 1 mg/mL in data set [1] (Water, 15° C., read-out: Solubility at 15° C.); less than 1 mg/mL in data set [1] (Water, 45° C., read-out: Solubility at 45° C.). Further, the “dissolution in diluent mixture” value in data set [2] (setting [7]) is recorded as “dissolved completely”. The “stability during the DVS and drying tests (in words)” value in data set [3] is “remained stable”. In data set [3] (at 95% RH), the “mass gained in DVS” value is roughly 0.1%. Besides, the “post-DVS sample versus pre-DVS sample by XRPD” value in data set [3] (setting [7]) is listed as “no transformation had taken place”. Further, in data set [4], the “change in weight during drying” value is reported as “no change in weight”. In addition, in data set [4] (setting [7]), the stability on drying result is “stable to drying; also recorded: remained stable”. Further, the “stability in high humidity environment” value is “no change in solid form” in data set [5] (listed as form 1) and “no change in solid form; also recorded: remained stable with no change in mass” in data set [5] (setting [7]). For the same compound, the “moisture level (KF)” value in data set [6] (after drying at 45° C. under vacuum for an additional 70 hours) is 4.1%; in data set [6] (dried sample in glove bag with open container of water, after 4 hours), 5.0%; in data set [6] (dried sample in glove bag with open container of water, after 18.5 hours) it was 4.8%; in data set [6] (dried sample in glove bag with open container of water, after 51 hours), 4.9%.

As for `CC(C)(C)c1[nH]cnc1/C=c1\[nH]c(=O)/c(=C/c2ccccc2)[nH]c1=O` [plinabulin compound, (3Z,6Z)-3-Benzylidene-6-{[5-(2-methyl-2-propanyl)-1H-imidazol-4-yl]methylene}-2,5-piperazinedione], the “solubility (in words)” value in data set [1] (THF) is reported as “highly soluble”.

`CC(C)(C)c1[nH]cnc1/C=c1\[nH]c(=O)/c(=C/c2ccccc2)[nH]c1=O` [Form 3]: in data set [2] (listed as anhydrous plinabulin (Form 3)), the “dissolution in diluent mixture” value is on record as “insoluble particles”. For the same compound, the “post-DVS sample versus pre-DVS sample by XRPD” value in data set [3] is on record as “differed from the pre-DVS sample”. In data set [3] (at 90% RH), the “mass lost in DVS” value is recorded as “about 0.2%”.

The solubility is the concentration that dissolves in the medium under given conditions.
